The test system of assay [1] is Viral SN123 infected CEM cells.
Method: Purpose: To determine IC50 CC50 for compounds:
Media A [1% DMSO] (100 microliters DMSO+9.9 ml media A)
CEM cells @ [1×10^4] cells/ml (4 plate=40 ml) (6 plate=60 ml)
(need 70 microliters of each)
A-D at [10 mM] in 100% DMSO
4 or 6 u-bottom 96-well plates
4 flat bottom 96-well plates for dilutions
8-10 boxes of sterile costar tips
Approximately 10 reagent trays
1000 cells/well=1×10^4 cells/ml=1000 cells/100 microliters 200 microliters=total volume in a well
Cell Preparation and Plating of Cells, Media A and Media A (1% DMSO)
a. Number a 96-well tissue culture plate for each compound tested, one for a control plate, and one for the control compound.
b. Count cells on hemacytometer and resuspend them in 40 ml or 80 ml of Media A at a concentration of [1×10^4]0 cells/ml.
Counting Cells on a Hemacytomer:
Label two 1.8 ml nuc tubes 1 and 2.
Put 0.5 ml of well mixed CEM cells (in growth phase) in tube 1.
Put 50 micoliters PBS and 40 microliters of trypan blue into tube 2.
Mix up the cells in tube 1 then remove 10 microliters of cells and put them into tube 2.
Mix well in tube 2, then remove 10 microliters of the stained cells and put them on the hemacytometer.
Count the number of cells in the center square of the hemacytometer with the microscope set on 10×.
The concentration of the stock CEM's in cells/ml is as follows:
Cells counted×1×10^5=Concentration of CEM's in [cells/ml].
c. Add 200 microliters Media A to: A1 of places 2-6. These are Blanks. A4-H4 of plate 1. These are Blanks.
d. Add 5 microlicers Media A to all wells of Rows A-D of plates 2-6 except A1 (the top half of each plate).
e. Add 50 microliters of Media A to wells A1-D3 of Plate 1 (the top half of the plate).
f. Add 50 microliters Media A[l% DMSO] to all wells of Columns 1-3 of plate 1.
This puts 1000 cells/well.
h. Put plates in an incubator while doing drug dilutions.
Preparation Control and Test Drugs
(1) Put 60 microliters of DMSO into all wells of Columns 2-12, Rows A-E.
(3) Put 70 microliters of A [10 mM] at 100% DMSO into well B1.
(4) Put 70 microliters of B [10 mM] at 100% DMSO into well C1.
(5) Put 70 microliters of C [10 mM] at 100% DMSO into well D1.
(6) Put 70 microliters of D [10 mM] at 100% DMSO into well E1.
Change tips before each dilution.
(1) In rows A-E of another plate make a row for the first 1:10 dilution to correspond to each compound's 100% DMSO row.
A into Row B for the first 1:10 dilution.
B into Row C for the first 1:10 dilution.
C into Row D for the first 1:10 dilution.
D into Row E for the first 1:10 dilution.
(2) Put 180 microliters of media A into all wells of rows A-E corresponding to the 100% DMSO rows. 2.5 ml needed per row.
(3) Remove 20 microliters from all wells of each row of the 100% DMSO rows and transfer it to the corresponding 1:10 row.
(1) Make a plate for every 3 compounds to be tested.
Use 20 ml of media A per plate.
(3) Transfer 25 microliters of each compound from the row in the 1:10 dilution to the corresponding two rows on the 1:100 dilution plate changing tips before each transfer.
Addition of Viral SN123 to Plates
a. Thaw Sn123 in 37° C. water bath for approximately 10 minutes.
b. Dilute Sn123 1:16 by adding 1 ml of Sn123 to 15 ml of media A.
c. Add 50 microliters of Sn123 [1:16] to wells E1-H12 of plates 2-6 and to wells E1-H3 of plate 1.
Addition of Drugs to Plates
a. Add 50 microliters of the control and test drugs from the rows in the 1:100 dilution plates to the appropriate rows in the final plates (changing tips before each transfer). One row in the 1:100 plate will do 4 rows in the final plate. Leave A1 blank.
b. Incubate all plates 7 days at 37° C. 5% CO2.
c. Do Xtt protocol on day 7 as follows:
d. Preparation of Xtt/PMS Solution: (4 plate=20 ml) (6 plate=30 ml)
100 microliters [100 mM] PMS+4.9 ml PBS=PMS at [2 mM]
(2) Heat 500 ml of H2O in microwave for 5 minutes on high.
(3) Put 20 or 30 ml of phenol red RPMI in a 50 ml centrifuge tube.
(4) Put the RPMI in the beaker of hot water.
(5) Add 20 or 30 mg of XTT to the warmed up RPMI.
A further assay addresses HIV-1 protease (Human immunodeficiency virus type 1 group M subtype B, UniProt P04585). Nature of the assay: Fluorescence HIV-1 Protease Inhibitor Assay (Pandex). The format is biochemical. Further details: made in house; host or cells: E. coli K12 L507/pHP10D (NRRL B-18560). The procedure: A. Preparation of Protease and Gag Fractions
Lyophils of E. coli K12 L507/pHP10D were obtained from the Northern Regional Research Laboratory, Peoria, Ill. 61604, under the accession number NRRL B-18560 (deposited Nov. 14, 1989). The lyophils were decanted into tubes containing 10 ml LB medium (10 g Bacto-tryptone, 5 g Bacto-yeast extract, and 10 g aqueous sodium chloride per liter; the pH was adjusted to 7.5 and incubated at 32° C. overnight).
A small portion of the overnight culture was placed on LB-agar (LB medium with 15 g/L Bacto-agar) plates containing 12.5 micrograms/ml tetracycline in a manner so as to obtain a single colony isolate of E. coli K12 L507/pHP10D. The single colony obtained was inoculated into 10 ml of LB medium containing 12.5 micrograms/ml tetracycline and incubated overnight at 32° C. with vigorous shaking. The 10 ml overnight culture was inoculated into LB medium containing 12.5 micrograms/ml tetracycline and incubated at 32° C. with vigorous shaking until the culture reached mid-log phase. […]
3. Preparation of Protease Fraction
A culture of E. coli K12 L507/pHP10D was grown to mid-log phase at 32° C. in LB media containing 12.5 micrograms/ml tetracycline. The cultivation temperature was quickly elevated to 40° C. to induce gene expression, and the cells were allowed to grow for 2.5 hours at this temperature before the culture was quickly chilled on ice. The cells were centrifuged and the cell pellet was resuspended in 20 ml of 50 mmol MES buffer (pH 6.0) containing 1 mmol EDTA, 1 mmol DTT, 1 mmol PMSF and 10% glycerol (“Buffer A”). Cells were lysed by sonication using a Fischer Model 300 Dismembrator and a microtip probe. Following centrifugation at 27,000×g, the supernatant was diluted to a total volume of 60 ml with Buffer A and loaded onto a 2.0×19 cm QAE-Sepharose column (1 ml/min, 4° C.), that had been equilibrated in Buffer A. The column was washed isocratically for 180 min and then eluted with a gradient eluent of […] aqueous sodium chloride in Buffer A over 120 min. Enzymatic activity was measured by HPLC using the synthetic peptide Ser-Gln-Asn-Tyr-Pro-Ile-Val as described in Margolin et al., Biochem. Biophys. Res. Commun., 167, 554-560 (1990); the production of the p1 peptide (Ser-Gln-Asn-Tyr) was measured.
The active fractions were combined, adjusted to […] 1.2M in ammonium sulfate, and applied to a 2.0×18 cm hexyl agarose column that had been equilibrated in Buffer A containing 1.2M ammonium sulfate. The sample was loaded at a flow rate of 1 ml/min at 4° C., washed with the equilibration buffer for 240 min (1 ml/min) and then eluted using a reverse linear gradient of 1.2-0M ammonium sulfate in Buffer A for 120 min at the same flow rate. The column was then washed isocratically in Buffer A for 120 min.
The active fractions were combined, concentrated to 10 ml using an Amicon stirred cell with a YM-10 membrane and then applied to a MonoS cation exchange column (1.0×10 cm) that had been equilibrated in Buffer A. The sample was loaded at a flow rate of 1 ml/min at 25° C. After washing isocratically for 30 min, the protease was eluted using a linear gradient of 0-0.45M aqueous sodium chloride in Buffer A over 40 min. The column was washed isocratically in Buffer A containing 0.45M aqueous sodium chloride for 30 minutes.
The active fractions were combined and concentrated to 200 microliters using an Amicon stirred cell and a YM-10 membrane and then the protease was applied to a Superose 6 size exclusion column equilibrated in Buffer A containing 0.1M aqueous sodium chloride.

Setting [2] is: Human immunodeficiency virus 1, CCRF-CEM, read-out: Whole cell IC50 nM.
The mark [3] stands for this setting: Human immunodeficiency virus 1, CCRF-CEM, read-out: Whole cell IC90 nM.
[4] abbreviates: Human immunodeficiency virus 1, CCRF-CEM, read-out: Whole cell IC50 nM, CEM cells, values in parentheses are 35B in same assay.
The mark [5] stands for this setting: Human immunodeficiency virus 1, CCRF-CEM, read-out: Whole cell IC90 nM, CEM cells, values in parentheses are 35B in same assay.
[6] abbreviates: value as run, 35B value of the same run in footnote or parentheses, read-out: Pandex IC50 ng/ml (converted).
[7] abbreviates: normalized to positive control (=1.0), * = a calculated average, read-out: Fluorescence Assay IC50 in ng/mL (converted).

Here are results for eleven compounds from patent US20030216569A1, “Method of making HIV protease inhibitors” (priority 1993, published 2003).

Where a name gives a salt, the structure may show the parent alone. Read-outs that look alike come from different tables or passages of the source.

For `Cc1c(O)cccc1C(=O)N[C@@H](CSc1ccccc1)[C@H](O)CN1C[C@H]2CCS[C@H]2C[C@H]1C(=O)NC(C)(C)C` (relative stereo) [Example 74 I, [6S-(6R*, 3aS*, 7aR*, 2′S*, 3′S*)]-2-[2′-Hydroxy-3′-phenylthiomethyl-4′-aza-5′-oxo-5′-(2″-methyl-3″-hydroxyphenyl)pentyl]-octahydrothieno[3,2-c]pyridine-6-N-t-butyl carboxamide methanesulfonic acid salt], the IC50 in assay [1] (setting [2]) was 4.06 nM; at HIV-1 protease (Table 2, read-out: IC50 (Pandex)), 0.3 nM. In addition, in assay [1] (setting [3]), the IC90 turned out to be 9.74 nM.
`Cc1c(OP(=O)(O)O)cccc1C(=O)N[C@@H](CSc1ccccc1)[C@H](O)CN1C[C@H]2CCCC[C@H]2C[C@H]1C(=O)NC(C)(C)C.Cl` (relative stereo) [Example 80, [3S-(3R*, 4aR*, 8aR*, 2′S*, 3′S*)]-2-[2′-Hydroxy-3′-phenylthiomethyl-4′-aza-5′-oxo-5′-(2″-methyl-3″-Hydroxyphenyl)pentyl]-decahydroisoquinoline-3-N-t-butyl carboxamide 3″-Dihydrogen Phosphate Hydrochloride]: the values for the IC50 (in assay [1] (setting [4]); on HIV-1 protease (setting [6])) were 8.99 nM and 5.85 nM, respectively. Besides, the IC90 in assay [1] (setting [5]) came out at 27.9 nM. At HIV-1 protease (at 22 (ng/ml), wrapped cell), the “Pandex % at 22” value is 0.3% at.
Consider `Cc1c(O)cccc1C(=O)N[C@@H](CSc1ccc(F)cc1)[C@H](O)CN1C[C@H]2CCCC[C@H]2C[C@H]1C(=O)NC(C)(C)C` (relative stereo) [Example 92, [3S-(3R*, 4aR*, 8aR*, 2′S*, 3′R*)]-2-(2′-Hydroxy-3′-(4′″-fluoro)phenylthiomethyl-4′-aza-5′-oxo-5′-(2″-methyl-3″-hydroxyphenyl)pentyl]-decahydroisoquinoline-3-N-t-butyl carboxamide], for which the results for the IC50 (in assay [1] (setting [2]); at HIV-1 protease (setting [6])) were 2.01 nM and less than 0.273 nM, respectively. The IC90 in assay [1] (setting [3]) worked out at 57 nM.
For the compound `Cc1c(F)cccc1C(=O)NC(Cc1ccccc1)C(O)CN1CC2CCCCC2CC1C(=O)NC(C)(C)C` (stereo not drawn) [Example 7, [3S-(3R*,4aR*,8aR*,2′S*,3′R*)]-2-[2′-Hydroxy-3′-phenylmethyl-4′-aza-5′-oxo-5′-(2″-methyl-3″-fluorophenyl)pentyl] decahydroisoquinoline-3-N-t-butylcarboxamide], the IC50 is 323 nM in assay [1] (setting [4]) and 474 nM on HIV-1 protease (setting [7]).
As for `Cc1c(O)cccc1C(=O)N[C@@H](CSc1ccccc1)[C@H](O)CN1CCN(Cc2cccnc2)C[C@H]1C(=O)NC(C)(C)C` [Example 19], the IC50 in assay [1] (setting [4]) was 16.1 nM; at HIV-1 protease (setting [7]) it was 0.528 nM; at HIV-1 protease (setting [6]), 0.693 nM. Moreover, in assay [1] (setting [5]), the concentration for an effect of 90% (IC90) turned out to be 42 nM.
On to `Cc1ccccc1C(=O)NC(CSc1ccccc1)C(O)CN1CC2CCCCC2CC1C(=O)NC(C)(C)C` (stereo not drawn) [Example 29, [3S-(3R*,4aR*,8aR*,2′S*,3′S*)]-2-[2′-Hydroxy-3′-phenylthiomethyl-4′-aza-5′-oxo-5′-(2″-methyl-phenyl)pentyl] decahydroisoquinoline-3-N-t-butylcarboxamide], for which the IC50 in assay [1] (setting [4]) was 1590 nM; on HIV-1 protease (setting [7]) it was 3.08 nM; at HIV-1 protease (setting [6]) it was 3.62 nM. In addition, the IC90 in assay [1] (setting [5]) turned out to be 4460 nM.
For `Cc1cnccc1C(=O)NC(CSc1ccccc1)C(O)CN1CC2CCCCC2CC1C(=O)NC(C)(C)C` (stereo not drawn) [Example 30, [3S-(3R*,4aR*,8aR*,2′S*,3′S*)]-2-[2′-Hydroxy-3′-phenylthiomethyl-4′-aza-5′-oxo-5′-(3″-methyl-pyrid-4″-yl)phentyl] decahydroisoquinoline-3-N-t-butylcarboxamide], in that order: 367 nM, 7.6 nM, 9.05 nM and 736 nM.
Consider `CC(C)(C)NC(=O)C1CC2CCCCC2CN1CC(O)C(CSc1ccccc1)NC(=O)c1cccc2ncccc12` (stereo not drawn) [Example 31, [3S-(3R*,4aR*,8aR*,2′S*,3′S*)]-2-[2′-Hydroxy-3′-phenylthiomethyl-4′-aza-5′-oxo-5′-(quinolin-5″-yl)pentyl] decahydroisoquinoline-3-N-t-butylcarboxamide], for which the IC50 in assay [1] (setting [4]) is 430 nM; at HIV-1 protease (setting [7]), 2.04 nM; on HIV-1 protease (setting [6]) it was 5.94 nM. Moreover, the concentration for an effect of 90% (IC90) in assay [1] (setting [5]) turned out to be 884 nM.
Take `CC(C)(C)NC(=O)C1CC2CCCCC2CN1CC(O)C(CSc1ccccc1)NC(=O)c1cccc2c1CCCN2` (stereo not drawn) [Example 32, [3S-(3R*,4aR*,8aR*,2′S*,3′S*)]-2-[2′-Hydroxy-3′-phenylthiomethyl-4′-aza-5′-oxo-5′-(1″,2″,3″,4″-tetrahydroquinolin-5″-yl)pentyl] decahydroisoquinoline-3-N-t-butylcarboxamide]: the IC50 is 539 nM in assay [1] (setting [4]), 0.877 nM on HIV-1 protease (setting [7]) and 2.53 nM at HIV-1 protease (setting [6]). Moreover, in assay [1] (setting [5]), the IC90 stood at 2310 nM.
For `CC(C)(C)NC(=O)[C@@H]1CN(Cc2cccnc2)CCN1C[C@@H](O)[C@H](CSc1ccccc1)NC(=O)c1cccc2c1CCCN2` [Example 33, [3S-(2R*,2′S*,3′S*)]-1-[2′-Hydroxy-3′-phenylthiomethyl-4′-aza-5′-oxo-5′-(1″,2″,3″,4″-tetrahydroquinolin-5″-yl)pentyl]-4-(pyrid-3′″-ylmethyl)piperazine-2N-t-butylcarboxamide], in that order: 39.5 nM, 2.69 nM, 3.17 nM and 200 nM.
In the case of “[2S-(2R*,2′S*,3′S*)]-1-[2′-Hydroxy-3′-phenylthiomethyl-4′-aza-5′-oxo-5′-(quinolin-5″-yl)pentyl]-4-(pyrid-3′″-ylmethyl)piperazine-2N-t-butylcarboxamide [Example 34]”, the IC50 in assay [1] (read-out: Whole cell IC50 nM, CEM cells, values in parentheses are 35B in same assay) was found to be 149 nM. Also, the IC90 in assay [1] (read-out: Whole cell IC90 nM, CEM cells, values in parentheses are 35B in same assay) was 564 nM. Besides, the “Fluorescence Assay IC50” value at HIV-1 protease (normalized to positive control (=1.0), * = a calculated average) is 4.5 ng/mL. The “Pandex IC50 ng/ml” value at HIV-1 protease (value as run, 35B value of the same run in footnote or parentheses) is 5.4^b ng/ml.
